The subject of this assay is 596521-263-R-J1-PDC complex spheroid growth. The experiment in a line: Anticancer human tumor 596521-263-R-J1-PDC patient-derived soft tissue sarcoma cell line growth inhibition [Asc]. To be noted: for viability, T/C: stronger effect = lower value. The method in brief: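 Tumor cells were grown as multicellular spheroids with stromal HUVEC and mesenchymal stem cells and treated singly or in combination. Concentrations fell in half-log steps from the clinical Cmax, or from 10 microM where none was known.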

Setting [1] is: curve of first compound, second compound 0.00949 µM.
[2] abbreviates: curve of first compound, second compound 0.03 µM.
Setting [3] is: curve of first compound, second compound 0.0949 µM.
[4] abbreviates: curve of first compound, second compound 0.3 µM.
[5] abbreviates: curve of first compound, second compound 0.949 µM.
Setting [6] is: curve of first compound, second compound 3 µM.

The structures appear in SMILES notation. Where “and” joins values, the source holds several entries; their conditions need not be identical. Equal values may be shown once.
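Note: spheroids exposed to compounds for 7 days.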

Regarding `NC(=O)C(=Cn1cnc(-c2cc(C(F)(F)F)cc(C(F)(F)F)c2)n1)c1cncnc1` + CCN1C(C(=O)NC23CCC(C(=O)O)(CC2)CC3)C(c2cccc(Cl)c2F)C2(C(=O)Nc3cc(Cl)ccc32)C12CCCCC2, the IC50 (commonly the concentration that gives 50% inhibition) reads like this: under setting [1], 32.9 nM; under setting [2], 33.6 nM; under setting [3], 37.4 nM; under setting [4], 29.4 nM; under setting [5], 35.1 nM; under setting [6], 28.2 nM. The viability, T/C (in general, the ratio of treated to control) was 92% (second compound 0.00949 µM, first compound 0.000949 µM); 97.2% (second compound 0.00949 µM, first compound 0.003 µM); 68.5% (second compound 0.00949 µM, first compound 0.00949 µM); 61.4% (second compound 0.00949 µM, first compound 0.03 µM); 15.4% (second compound 0.00949 µM, first compound 0.0949 µM); 10.3% (second compound 0.00949 µM, first compound 0.3 µM). For the same compound, the viability, T/C is, setting by setting: (second compound 0.03 µM, first compound 0.000949 µM) 102%; (second compound 0.03 µM, first compound 0.003 µM) 96.3%; (second compound 0.03 µM, first compound 0.00949 µM) 78.8%; (second compound 0.03 µM, first compound 0.03 µM) 56.8%; (second compound 0.03 µM, first compound 0.0949 µM) 20.4%; (second compound 0.03 µM, first compound 0.3 µM) 11.5%. Moreover, the viability, T/C (second compound 0.0949 µM, first compound 0.000949 µM) is 112%; the viability, T/C (second compound 0.0949 µM, first compound 0.003 µM) is 108%; the viability, T/C (second compound 0.0949 µM, first compound 0.00949 µM) was 87.8%; the viability, T/C (second compound 0.0949 µM, first compound 0.03 µM) was 61.4%; the viability, T/C (second compound 0.0949 µM, first compound 0.0949 µM) is 17.1%; the viability, T/C (second compound 0.0949 µM, first compound 0.3 µM) was 10.3%. Besides, the viability, T/C (second compound 0.3 µM, first compound 0.000949 µM) is 127%; the viability, T/C (second compound 0.3 µM, first compound 0.003 µM) is 91.7%; the viability, T/C (second compound 0.3 µM, first compound 0.00949 µM) was 77.3%; the viability, T/C (second compound 0.3 µM, first compound 0.03 µM) is 56.6%; the viability, T/C (second compound 0.3 µM, first compound 0.0949 µM) was 18%; the viability, T/C (second compound 0.3 µM, first compound 0.3 µM) is 8.14%. The viability, T/C (second compound 0.949 µM, first compound 0.000949 µM) is 104%; the viability, T/C (second compound 0.949 µM, first compound 0.003 µM) is 102%; the viability, T/C (second compound 0.949 µM, first compound 0.00949 µM) was 79.6%; the viability, T/C (second compound 0.949 µM, first compound 0.03 µM) is 61%; the viability, T/C (second compound 0.949 µM, first compound 0.0949 µM) was 16.3%; the viability, T/C (second compound 0.949 µM, first compound 0.3 µM) was 11.4%. The viability, T/C was 88.2% (second compound 3 µM, first compound 0.000949 µM); 88.3% (second compound 3 µM, first compound 0.003 µM); 74.3% (second compound 3 µM, first compound 0.00949 µM); 48.4% (second compound 3 µM, first compound 0.03 µM); 22% (second compound 3 µM, first compound 0.0949 µM); 9.41% (second compound 3 µM, first compound 0.3 µM).

On to `Cc1c(S(C)(=O)=O)c(-c2cc(F)cc(N3CCN(c4ccc(NS(=O)(=O)c5ccc(NC(CCN6CCC(C(=O)OCCCP(=O)(O)O)CC6)CSc6ccccc6)c(S(=O)(=O)C(F)(F)F)c5)cc4)CC3)c2)c(-c2ccc(Cl)cc2)n1C(C)C` (stereo not given), for which the viability, T/C was 101% [middle of 7 runs] (compound 0.0316 µM); 93.1% [middle of 7 runs] (compound 0.1 µM); 91.5% [middle of 7 runs] (compound 0.316 µM); 77.7% [middle of 7 runs] (compound 1 µM); 63% [middle of 7 runs] (compound 3.16 µM); 55.6% [middle of 7 runs] (compound 10 µM). Moreover, the IC50 (compound alone, run of 11/07/2022) is greater than 10000 nM.

On to `C=C(F)C(=O)N1CCN(c2nc(OCC3CCCN3C)nc3c2CCN(c2cccc4cccc(Cl)c24)C3)CC1CC#N` (stereo not given), for which the viability, T/C by setting is: (compound 0.0316 µM) 95.8% and 100%; (compound 0.1 µM) 100% and 95.2%; (compound 0.316 µM) 98.3% and 103%; (compound 1 µM) 99.6% and 123%; (compound 3.16 µM) 89.5% and 80.2%; (compound 10 µM) 0.48% and 3.4%. Besides, the IC50 (curve of compound) was 5270 nM and 4970 nM.

Regarding `COc1c(OCCCN2CCOCC2)ccc2c3n(c(=NC(=O)c4cnc(N)nc4)nc12)CCN3`, the viability, T/C is 98.3% and 95.9% (compound 0.00316 µM); 88% and 87.8% (compound 0.01 µM); 71.1% and 82.2% (compound 0.0316 µM); 68% and 61.7% (compound 0.1 µM); 44.1% and 40% (compound 0.316 µM); 31.9% and 28.1% (compound 1 µM). The IC50 (curve of compound) is 254 nM and 188 nM.

Consider `CNC(C)C(=O)NC1CN(S(=O)(=O)c2cccc(S(=O)(=O)N3CCC4CCC(C(=O)NC(c5ccccc5)c5ccccc5)N4C(=O)C(NC(=O)C(C)NC)C3)c2)CCC2CCC(C(=O)NC(c3ccccc3)c3ccccc3)N2C1=O` (stereo not given) + CCN1C(C(=O)NC23CCC(C(=O)O)(CC2)CC3)C(c2cccc(Cl)c2F)C2(C(=O)Nc3cc(Cl)ccc32)C12CCCCC2, for which the IC50 runs as follows: under setting [1], greater than 1000 nM; under setting [2], greater than 1000 nM; under setting [3], greater than 1000 nM; under setting [4], greater than 1000 nM; under setting [5], greater than 1000 nM; under setting [6], greater than 1000 nM. The viability, T/C is, setting by setting: (second compound 0.00949 µM, first compound 0.00316 µM) 92.4%; (second compound 0.00949 µM, first compound 0.01 µM) 87.3%; (second compound 0.00949 µM, first compound 0.0316 µM) 111%; (second compound 0.00949 µM, first compound 0.1 µM) 96%; (second compound 0.00949 µM, first compound 0.316 µM) 87%; (second compound 0.00949 µM, first compound 1 µM) 86.3%. In addition, the viability, T/C (second compound 0.03 µM, first compound 0.00316 µM) is 96.4%; the viability, T/C (second compound 0.03 µM, first compound 0.01 µM) was 86.5%; the viability, T/C (second compound 0.03 µM, first compound 0.0316 µM) is 88.5%; the viability, T/C (second compound 0.03 µM, first compound 0.1 µM) was 87.7%; the viability, T/C (second compound 0.03 µM, first compound 0.316 µM) was 87.5%; the viability, T/C (second compound 0.03 µM, first compound 1 µM) was 73.1%. The viability, T/C (second compound 0.0949 µM, first compound 0.00316 µM) is 102%; the viability, T/C (second compound 0.0949 µM, first compound 0.01 µM) was 105%; the viability, T/C (second compound 0.0949 µM, first compound 0.0316 µM) was 85.2%; the viability, T/C (second compound 0.0949 µM, first compound 0.1 µM) was 94.7%; the viability, T/C (second compound 0.0949 µM, first compound 0.316 µM) is 91.4%; the viability, T/C (second compound 0.0949 µM, first compound 1 µM) is 89.8%. Moreover, the viability, T/C runs as follows: (second compound 0.3 µM, first compound 0.00316 µM) 104%; (second compound 0.3 µM, first compound 0.01 µM) 104%; (second compound 0.3 µM, first compound 0.0316 µM) 98.4%; (second compound 0.3 µM, first compound 0.1 µM) 91.5%; (second compound 0.3 µM, first compound 0.316 µM) 94.2%; (second compound 0.3 µM, first compound 1 µM) 70.3%. Besides, the viability, T/C was 99% (second compound 0.949 µM, first compound 0.00316 µM); 90.2% (second compound 0.949 µM, first compound 0.01 µM); 98.8% (second compound 0.949 µM, first compound 0.0316 µM); 80.3% (second compound 0.949 µM, first compound 0.1 µM); 78.8% (second compound 0.949 µM, first compound 0.316 µM); 84.4% (second compound 0.949 µM, first compound 1 µM). Besides, the viability, T/C reads like this: (second compound 3 µM, first compound 0.00316 µM) 78.2%; (second compound 3 µM, first compound 0.01 µM) 87.8%; (second compound 3 µM, first compound 0.0316 µM) 82.8%; (second compound 3 µM, first compound 0.1 µM) 73.5%; (second compound 3 µM, first compound 0.316 µM) 69.3%; (second compound 3 µM, first compound 1 µM) 65.4%.

For the origin of these results see PubChem BioAssay AID1963449 (Molecular Pharmacology Branch, DTP, NCI, 2024).
